In PubChem BioAssay AID212 (DTP/NCI, 2004):
Values joined by “and” are separate entries in the source; they are usually repeats but may differ in a detail not shown here. Identical values can stand only once. Records with an inconclusive call do not appear.

Tested on: BDF1 mice, colon carcinoma 38 sc, T/C %
Assay: NCI In Vivo Anticancer Drug Screen. Data for tumor model Colon Carcinoma 38 (subcutaneous) in B6D2F1 (BDF1) mice
Settings: endpoint: median tumor weight (est.), higher = larger tumour
Summary of the method: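 Transplantable tumor in mice; compound-treated vs vehicle-dosed controls. Measured survival or tumor size; value = T ÷ C.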

[1] = dose: 100.0 mg/kg/injection, schedule: Q07DX002 (ip), vehicle: saline
[2] = dose: 400.0 mg/kg/injection, schedule: Q07DX002 (ip), vehicle: saline
[3] = dose: 1600.0 mg/kg/injection, schedule: Q07DX002 (ip), vehicle: saline
[4] = dose: 200.0 mg/kg/injection, schedule: Q07DX002 (ip), vehicle: saline
[5] = dose: 800.0 mg/kg/injection, schedule: Q07DX002 (ip), vehicle: saline
[6] = dose: 12.5 mg/kg/injection, schedule: Q07DX002 (ip), vehicle: saline with Tween-80
[7] = dose: 25.0 mg/kg/injection, schedule: Q07DX002 (ip), vehicle: saline with Tween-80
[8] = dose: 50.0 mg/kg/injection, schedule: Q07DX002 (ip), vehicle: saline with Tween-80
[9] = dose: 200.0 mg/kg/injection, schedule: Q07DX002 (ip), vehicle: saline with Tween-80
[10] = dose: 25.0 mg/kg/injection, schedule: Q07DX002 (ip), vehicle: saline
[11] = dose: 12.5 mg/kg/injection, schedule: Q07DX002 (ip), vehicle: saline
[12] = dose: 100.0 mg/kg/injection, schedule: Q07DX002 (ip), vehicle: saline with Tween-80

Nc1n[nH]c(N)n1
T/C [1]: 84 % of control and 90 % of control and 105 % of control | T/C (dose: 100.0 mg/kg/injection, schedule: Q07DX003 (ip), vehicle: saline with Tween-80): 56 % of control | T/C [2]: 65 % of control and 69 % of control and 71 % of control | T/C (dose: 400.0 mg/kg/injection, schedule: Q07DX003 (ip), vehicle: saline with Tween-80): 110 % of control | T/C (dose: 800.0 mg/kg/injection, schedule: Q07DX003 (ip), vehicle: saline with Tween-80): 102 % of control | T/C [3]: 71 % of control and 73 % of control and 81 % of control

COc1cccc2c1C(=O)c1c(O)c3c(c(O)c1C2=O)C[C@@](O)(/C(CO)=N/NC(=O)c1ccc(Cl)c(Cl)c1)C[C@@H]3OC1CC(N)C(O)C(C)O1 (stereo partly specified)
T/C (dose: 1.5 mg/kg/injection, schedule: Q07DX002 (ip), vehicle: saline): 88 % of control | T/C (dose: 3.0 mg/kg/injection, schedule: Q07DX002 (ip), vehicle: saline): 115 % of control | T/C (dose: 6.0 mg/kg/injection, schedule: Q07DX002 (ip), vehicle: saline): 80 % of control | T/C (dose: 12.0 mg/kg/injection, schedule: Q07DX002 (ip), vehicle: saline): 73 % of control | T/C (dose: 24.0 mg/kg/injection, schedule: Q07DX002 (ip), vehicle: saline): 46 % of control | T/C (dose: 48.0 mg/kg/injection, schedule: Q07DX002 (ip), vehicle: saline): 48 % of control

O=C/C(Cl)=C(/Cl)C(=O)O
T/C (dose: 5.0 mg/kg/injection, schedule: Q07DX002 (ip), vehicle: saline with Tween-80): 63 % of control | T/C (dose: 10.0 mg/kg/injection, schedule: Q07DX002 (ip), vehicle: saline with Tween-80): 113 % of control and 92 % of control

O=C(O)CP(=O)(O)O
T/C [4]: 115 % of control and 96 % of control | T/C [5]: 78 % of control and 80 % of control | T/C [3]: 59 % of control

CN=S(=O)(OCCCCCOS(=O)(=NC)c1ccccc1)c1ccccc1 (stereo unspecified)
T/C [6]: 58 % of control | T/C [7]: 74 % of control | T/C [8]: 69 % of control | T/C [9]: 59 % of control

CCCC(=O)Nc1ncnc2c1ncn2C1OC2COP(=O)(O)OC2C1OC(=O)CCC (stereo unspecified)
T/C [10]: 84 % of control and 103 % of control | T/C [1]: 101 % of control and 106 % of control | T/C [5]: 75 % of control and 96 % of control

Cc1cc2c(C(C)C)c(O)c(O)c(C=O)c2c(O)c1-c1c(C)cc2c(C(C)C)c(O)c(O)c(C=O)c2c1O
T/C (dose: 1.5 mg/kg/injection, schedule: Q07DX002 (ip), vehicle: saline with Tween-80): 117 % of control | T/C (dose: 3.0 mg/kg/injection, schedule: Q07DX002 (ip), vehicle: saline with Tween-80): 97 % of control | T/C (dose: 6.0 mg/kg/injection, schedule: Q07DX002 (ip), vehicle: saline with Tween-80): 107 % of control | T/C (dose: 12.0 mg/kg/injection, schedule: Q07DX002 (ip), vehicle: saline with Tween-80): 53 % of control | T/C (dose: 24.0 mg/kg/injection, schedule: Q07DX002 (ip), vehicle: saline with Tween-80): 96 % of control

NC1CCCCC1N.O=S(=O)([O-])CCCNC1CCCCC1.O=S(=O)([O-])CCCNC1CCCCC1.[Pt+4]
T/C (dose: 0.78 mg/kg/injection, schedule: Q07DX002 (ip), vehicle: saline): 50 % of control | T/C (dose: 1.56 mg/kg/injection, schedule: Q07DX002 (ip), vehicle: saline): 38 % of control | T/C (dose: 3.12 mg/kg/injection, schedule: Q07DX002 (ip), vehicle: saline): 62 % of control | T/C (dose: 6.25 mg/kg/injection, schedule: Q07DX002 (ip), vehicle: saline): 25 % of control and 47 % of control | T/C [11]: 14 % of control

C1=CCOCOC1
T/C [6]: 77 % of control | T/C [7]: 94 % of control and 104 % of control | T/C [12]: 72 % of control | T/C [9]: 58 % of control

Nc1ccc(Cn2ccc3c4c(N)nc(N)nc4ccc32)cc1
T/C (dose: 1.25 mg/kg/injection, schedule: Q07DX002 (ip), vehicle: saline with Tween-80): 90 % of control | T/C (dose: 2.5 mg/kg/injection, schedule: Q07DX002 (ip), vehicle: saline with Tween-80): 93 % of control and 106 % of control | T/C (dose: 40.0 mg/kg/injection, schedule: Q07DX002 (ip), vehicle: saline with Tween-80): 59 % of control

CCOc1cc2c(cc1C(C)c1ccc(OC)cc1)OCO2 (stereo unspecified)
T/C (dose: 50.0 mg/kg/injection, schedule: Q07DX002 (ip), vehicle: distilled water + Tween-80 + alcohol): 72 % of control | T/C (dose: 100.0 mg/kg/injection, schedule: Q07DX002 (ip), vehicle: distilled water + Tween-80 + alcohol): 100 % of control | T/C (dose: 400.0 mg/kg/injection, schedule: Q07DX002 (ip), vehicle: distilled water + Tween-80 + alcohol): 100 % of control

C1OC1C1CO1 (stereo unspecified)
T/C (dose: 10.0 mg/kg/injection, schedule: Q07DX002 (ip), vehicle: saline): 99 % of control and 107 % of control | T/C (dose: 20.0 mg/kg/injection, schedule: Q07DX002 (ip), vehicle: saline): 119 % of control and 120 % of control | T/C (dose: 40.0 mg/kg/injection, schedule: Q07DX002 (ip), vehicle: saline): 96 % of control

CN(CO)c1nc(N(C)CO)nc(N(C)CO)n1
T/C [11]: 95 % of control | T/C (dose: 12.5 mg/kg/injection, schedule: Q07DX003 (ip), vehicle: saline): 208 % of control | T/C [10]: 87 % of control | T/C (dose: 25.0 mg/kg/injection, schedule: Q07DX003 (ip), vehicle: saline): 165 % of control | T/C [8]: 117 % of control | T/C (dose: 50.0 mg/kg/injection, schedule: Q07DX002 (ip), vehicle: saline): 66 % of control | T/C (dose: 50.0 mg/kg/injection, schedule: Q07DX003 (ip), vehicle: saline): 81 % of control | T/C [12]: 105 % of control | T/C [1]: 46 % of control | T/C (dose: 100.0 mg/kg/injection, schedule: Q07DX003 (ip), vehicle: saline): 46 % of control | T/C [9]: 55 % of control | T/C [4]: 21 % of control | T/C (dose: 200.0 mg/kg/injection, schedule: Q07DX003 (ip), vehicle: saline): 6 % of control | T/C [2]: 4 % of control
